Results on 4 compounds are retold here after ChEMBL document CHEMBL1201862, “PubChem BioAssay data set” (2004).

Among the test systems are SK-MEL-2; NCI-H522; SF-539; Malme-3M; SNB-75; MDA-N; SNB-19; HCC 2998; RPMI-8226; RXF 393; SK-OV-3; K562; OVCAR-4; OVCAR-3; 786-0; MCF7; A549; MDA-MB-231; TK-10; T47D.
Common to all, as to experiment: NCI-60 cell line screen, 48 h

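Protocol summary: plate cells (96-well), add compound at 5 concentrations, incubate 48 h, interpolate endpoints linearly. GI50 = concentration required for 50% inhibition of growth.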 Calls of active or inactive are those of the source. No stated cut-off is given here; in the data, active = GI50 up to about 1.1 µM and inactive = higher.

`O=C(CCCN1CCC2(CC1)C(=O)NC(=O)N2c1ccccc1)c1ccc(F)cc1`: the GI50 was > 100 µM (inactive) in the test with SK-MEL-2; 8.73 µM (inactive) in the test on NCI-H522; > 100 µM (inactive) in the test with SF-539; > 100 µM (inactive) in the test on Malme-3M; > 100 µM (inactive) with SNB-75; > 100 µM (inactive) in the test with MDA-N. Moreover, the GI50 in the test on SNB-19 was > 100 µM (inactive); in the test on HCC 2998, > 100 µM (inactive); in the test with RPMI-8226 it was > 100 µM (inactive); with RXF 393 it was > 100 µM (inactive); with SK-OV-3, > 100 µM (inactive); in the test on K562 it was > 10 µM (inactive). In addition, the GI50 with OVCAR-4, in the test with OVCAR-3, in the test on 786-0, in the test on MCF7, with A549 and in the test with MDA-MB-231 was > 100 µM (inactive) each time. Also, the GI50 with TK-10 and with T47D was > 100 µM (inactive) throughout.
Take `CC(C)C1(C)N=C(C(F)(F)F)c2cc(C(=O)C(F)(F)F)c3ccccc3c2N1` (stereo not given): the GI50 in the test on SK-MEL-2 was 2.51 µM (inactive); in the test with NCI-H522 it was 2.3 µM (inactive); in the test on SF-539, 6.5 µM (inactive); in the test on Malme-3M, 3 µM (inactive); in the test on SNB-75, 2.31 µM (inactive); in the test with MDA-N it was 3.04 µM (inactive). Moreover, the GI50 was 4.14 µM (inactive) in the test on SNB-19; 3.69 µM (inactive) in the test on HCC 2998; 3.53 µM (inactive) in the test with RPMI-8226; 2.71 µM (inactive) in the test with RXF 393; 15 µM (inactive) in the test with SK-OV-3; 3.96 µM (inactive) in the test on K562. The GI50 with OVCAR-4 is 4.91 µM (inactive); in the test on OVCAR-3 it was 3.08 µM (inactive); in the test on 786-0, 3.7 µM (inactive); in the test on MCF7 it was 4.03 µM (inactive); in the test on A549 it was 5.43 µM (inactive); with MDA-MB-231 it was 2.73 µM (inactive). Besides, the values for the GI50 in the test on TK-10 and with T47D were 4.51 µM (inactive) and 3.13 µM (inactive), respectively.
For `NC1CC(=O)c2csc(Cl)c21` (stereo not given), the GI50 with SK-MEL-2 is 12.9 µM (inactive); in the test with NCI-H522, 1.72 µM (inactive); in the test with SF-539, 2.23 µM (inactive); with Malme-3M, 2.68 µM (inactive); in the test with SNB-75 it was 17.3 µM (inactive); with MDA-N it was 8.63 µM (inactive). The GI50 with SNB-19 is 17.5 µM (inactive); in the test with HCC 2998, 17.6 µM (inactive); in the test on RPMI-8226 it was 0.234 µM (active); in the test on RXF 393, 5.78 µM (inactive); in the test on SK-OV-3 it was 17.3 µM (inactive); in the test with K562, 2.74 µM (inactive). Further, the GI50 was 25.9 µM (inactive) in the test with OVCAR-4; 6.38 µM (inactive) in the test on OVCAR-3; 1.55 µM (inactive) in the test with 786-0; 17.5 µM (inactive) in the test with MCF7; 17.9 µM (inactive) with A549; 9.46 µM (inactive) in the test with MDA-MB-231. Also, the GI50 in the test on TK-10 was 11.5 µM (inactive); in the test with T47D, 3.98 µM (inactive).
Consider `O=C1C=CC(=O)c2c1ccc1c3ccccc3n(Cc3ccccc3)c21`, for which the GI50 in the test on SK-MEL-2 was 31.5 µM (inactive); with NCI-H522, 14.3 µM (inactive); in the test with SF-539 it was 38.4 µM (inactive); in the test on Malme-3M, 16.6 µM (inactive); with SNB-75, > 82.8 µM (inactive); in the test with MDA-N it was 23 µM (inactive). Besides, the GI50 with SNB-19 was > 100 µM (inactive); in the test with HCC 2998, > 37 µM (inactive); with RPMI-8226, 0.231 µM (active); with RXF 393, 16.8 µM (inactive); in the test on SK-OV-3, > 100 µM (inactive); with K562, 2.84 µM (inactive). Further, the GI50 was 13.3 µM (inactive) in the test with OVCAR-4; 17.3 µM (inactive) in the test on OVCAR-3; 16.2 µM (inactive) in the test with 786-0; 17.1 µM (inactive) with MCF7; > 100 µM (inactive) in the test with A549; 20.3 µM (inactive) in the test on MDA-MB-231. In addition, the GI50 was 18.6 µM (inactive) in the test with TK-10 and 25.1 µM (inactive) with T47D.
